Experimental data taken from patent US10202406B2, “Boron cluster compounds and uses thereof” (priority 2011, dated 2019).
“Also recorded” adds a separate entry of the source.

What was measured:
[1] = target: T1, Nav1.2 voltage gated sodium channels (Homo sapiens, UniProt Q99250); experiment: Two electrode voltage clamp electrophysiology of voltage gated sodium channels expressed in Xenopus oocytes; type: cell-based; conditions: 0.3 mM in superfusate for two minutes then washed out; holding potential -50 mV; Nav1.2 in Xenopus oocytes
T1 construct: expressed in transfected cells; host or cells: Xenopus oocytes
Description: Nav1.2 voltage gated sodium channels were expressed in Xenopus oocytes and standard two electrode voltage clamp techniques were used to measure ionic currents through the channels after depolarizations from a holding potential of −50 mV. The test drugs, all at a concentration of 0.3 mM, were added to the superfusate for two minutes as indicated by the black bars and then washed out. […] Data are expressed as means±standard error of the mean and n equals the number of cells used in FIG. 4 (a)-(d).

[2] = test system: mice; experiment: Hot plate paw withdrawal latency after injection into a hind limb near the sciatic nerve; type: in vivo; conditions: 50 microliters of 10 mM injected into hind limb near sciatic nerve, 55° C. hot plate, about 30 min
Description: The test drugs, all at a volume of 50 microliters and a concentration of 10 mM, were injected into a hind limb near the sciatic nerve. The time it takes for the animals to withdraw the foot of the injected limb from touching a 55° C. hot plate is measured in seconds. This time is termed the paw withdrawal latency and is measured over about a 30 min time period. Data are expressed as means±standard error of the mean and n equals the number of animals used in FIG. 5(a)-(d).

[3] = test system: mice; experiment: Motor deficit testing, inverted screen test after injection; conditions: sensory block (hot plate) versus motor block (inverted screen test)
Description: Motor function was tested by observing the ability of the mice to walk hanging upside down from a screen, termed the inverted screen test.

T1 sequence (Q99250 whole entry): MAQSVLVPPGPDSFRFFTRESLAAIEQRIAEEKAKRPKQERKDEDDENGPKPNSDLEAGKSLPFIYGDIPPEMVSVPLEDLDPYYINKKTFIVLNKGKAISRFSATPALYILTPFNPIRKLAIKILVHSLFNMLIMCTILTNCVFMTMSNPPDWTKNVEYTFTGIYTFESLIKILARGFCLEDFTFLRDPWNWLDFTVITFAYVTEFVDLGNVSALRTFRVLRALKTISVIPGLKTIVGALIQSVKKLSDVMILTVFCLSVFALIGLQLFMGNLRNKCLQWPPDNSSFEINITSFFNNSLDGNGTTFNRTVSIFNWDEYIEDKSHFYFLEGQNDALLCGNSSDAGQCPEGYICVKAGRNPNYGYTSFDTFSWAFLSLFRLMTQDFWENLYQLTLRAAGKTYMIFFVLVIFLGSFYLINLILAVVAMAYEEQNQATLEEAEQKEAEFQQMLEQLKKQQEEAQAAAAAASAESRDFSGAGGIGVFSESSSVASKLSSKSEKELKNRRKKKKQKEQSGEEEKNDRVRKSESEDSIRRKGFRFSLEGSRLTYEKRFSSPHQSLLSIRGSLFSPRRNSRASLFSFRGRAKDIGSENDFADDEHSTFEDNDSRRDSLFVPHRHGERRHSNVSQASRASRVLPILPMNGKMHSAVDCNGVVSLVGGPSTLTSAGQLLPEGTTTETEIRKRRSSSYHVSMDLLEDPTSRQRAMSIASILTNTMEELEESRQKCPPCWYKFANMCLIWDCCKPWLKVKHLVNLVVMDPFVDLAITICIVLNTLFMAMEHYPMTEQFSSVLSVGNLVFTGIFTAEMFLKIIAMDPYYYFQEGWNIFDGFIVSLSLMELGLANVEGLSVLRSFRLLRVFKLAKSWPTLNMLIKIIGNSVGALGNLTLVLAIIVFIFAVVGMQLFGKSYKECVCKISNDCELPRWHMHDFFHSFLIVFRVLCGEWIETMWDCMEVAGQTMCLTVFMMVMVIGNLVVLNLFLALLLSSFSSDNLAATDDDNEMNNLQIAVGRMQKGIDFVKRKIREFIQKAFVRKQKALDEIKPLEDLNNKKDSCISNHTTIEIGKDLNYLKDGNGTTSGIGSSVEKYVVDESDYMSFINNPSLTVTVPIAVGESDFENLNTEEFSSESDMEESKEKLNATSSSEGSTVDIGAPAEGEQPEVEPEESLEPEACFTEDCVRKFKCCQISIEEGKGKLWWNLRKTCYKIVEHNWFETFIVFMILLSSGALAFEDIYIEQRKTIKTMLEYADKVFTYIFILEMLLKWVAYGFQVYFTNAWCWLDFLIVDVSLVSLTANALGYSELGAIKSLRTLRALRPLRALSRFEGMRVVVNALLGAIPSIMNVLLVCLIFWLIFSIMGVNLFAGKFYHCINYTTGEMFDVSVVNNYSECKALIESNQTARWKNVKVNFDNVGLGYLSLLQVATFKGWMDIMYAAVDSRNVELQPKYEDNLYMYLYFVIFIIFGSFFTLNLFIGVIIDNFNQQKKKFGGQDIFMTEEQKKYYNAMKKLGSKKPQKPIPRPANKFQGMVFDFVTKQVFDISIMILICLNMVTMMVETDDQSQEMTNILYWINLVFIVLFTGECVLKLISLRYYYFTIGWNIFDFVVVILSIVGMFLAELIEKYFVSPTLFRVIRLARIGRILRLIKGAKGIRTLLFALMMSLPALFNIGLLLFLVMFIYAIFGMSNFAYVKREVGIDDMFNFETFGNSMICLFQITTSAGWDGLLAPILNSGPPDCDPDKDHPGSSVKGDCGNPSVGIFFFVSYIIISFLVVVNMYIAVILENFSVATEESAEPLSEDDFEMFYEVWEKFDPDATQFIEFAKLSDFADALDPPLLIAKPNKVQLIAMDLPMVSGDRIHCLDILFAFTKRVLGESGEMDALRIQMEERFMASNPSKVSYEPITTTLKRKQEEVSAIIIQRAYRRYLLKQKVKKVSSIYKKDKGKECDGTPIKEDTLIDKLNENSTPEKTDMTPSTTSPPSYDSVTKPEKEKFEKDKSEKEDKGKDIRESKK

Compound	block of voltage gated sodium channels (ionic currents) [1]	analgesia / sensory block (paw withdrawal latency) [2]	selectivity of block of sensory nerves over motor nerves [3]
CCN(CC)CC(=O)Nc1c(C)cccc1C [lidocaine, reference compound]	block voltage gated sodium channels in a reversible manner	provide analgesia	
9-Diethylaminoacetamido-1,7-closo-carborane [m-carborane lidocaine]	block voltage gated sodium channels in a reversible manner	did not provide analgesia; also recorded: neither motor nor sensory block	
3-Diethylaminoacetamido-1,2-closo-carborane [o-carborane lidocaine]	block voltage gated sodium channels in a reversible manner	provide analgesia	selectively blocked sensory nerves over motor nerves; also recorded: selective block of sensory nerves over motor nerves
2-Diethylaminoacetamido-1,12-closo-carborane [p-carborane lidocaine]	block voltage gated sodium channels in a reversible manner	provide analgesia	selectively blocked sensory nerves over motor nerves; also recorded: selective block of sensory nerves over motor nerves
